Test system: 429239-143-T-J1-PDC complex spheroid viability
Experiment: Anticancer human tumor 429239-143-T-J1-PDC patient-derived small cell lung carcinoma cell line growth inhibition [POLQ]
Settings: for IC50: curve of first compound; for viability, T/C: stronger effect = lower value
Method in brief: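 Growth inhibition in 3D: complex spheroids (tumor PDC, HUVEC, MSC) treated with POLQ inhibitor combinations; where Cmax unknown, highest tested concentration 10 microM, except SN-38 at 1 microM.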

[1] = second compound 0.0316 µM, first compound 0.0316 µM
[2] = second compound 0.0316 µM, first compound 0.1 µM
[3] = second compound 0.1 µM, first compound 0.0316 µM
[4] = second compound 0.1 µM, first compound 0.1 µM
[5] = second compound 0.316 µM, first compound 0.0316 µM
[6] = second compound 0.316 µM, first compound 0.1 µM
[7] = second compound 1 µM, first compound 0.0316 µM
[8] = second compound 1 µM, first compound 0.1 µM
[9] = second compound 3.16 µM, first compound 0.0316 µM
[10] = second compound 3.16 µM, first compound 0.1 µM
[11] = second compound 10 µM, first compound 0.0316 µM
[12] = second compound 10 µM, first compound 0.1 µM
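Also: luminescence signal used as surrogate measure of viable cells; spheroids exposed to compounds for seven days before readout.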
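For viability, T/C in this document: 100% = DMSO vehicle control viability as luminescence relative to vehicle.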

CC[C@@]1(O)C(=O)OCc2c1cc1n(c2=O)Cc2cc3c(CN(C)C)c(O)ccc3nc2-1 + COC1C(OC(N)=O)C(O)C(Oc2ccc3c(O)c(NC(=O)c4ccc(O)c(CC=C(C)C)c4)c(=O)oc3c2C)OC1(C)C
IC50 (second compound 0.0316 µM): 13.5 nM | IC50 (second compound 0.1 µM): 16 nM | IC50 (second compound 0.316 µM): 15 nM | IC50 (second compound 1 µM): 16.6 nM | IC50 (second compound 3.16 µM): 13.6 nM | IC50 (second compound 10 µM): 16.2 nM | viability, T/C (second compound 0.0316 µM, first compound 0.000316 µM): 102% | viability, T/C (second compound 0.0316 µM, first compound 0.001 µM): 101% | viability, T/C (second compound 0.0316 µM, first compound 0.00316 µM): 86.5% | viability, T/C (second compound 0.0316 µM, first compound 0.01 µM): 63% | viability, T/C [1]: 18.6% | viability, T/C [2]: 19.8% | viability, T/C (second compound 0.1 µM, first compound 0.000316 µM): 110% | viability, T/C (second compound 0.1 µM, first compound 0.001 µM): 108% | viability, T/C (second compound 0.1 µM, first compound 0.00316 µM): 88.7% | viability, T/C (second compound 0.1 µM, first compound 0.01 µM): 72.9% | viability, T/C [3]: 16.8% | viability, T/C [4]: 19% | viability, T/C (second compound 0.316 µM, first compound 0.000316 µM): 98.4% | viability, T/C (second compound 0.316 µM, first compound 0.001 µM): 97.4% | viability, T/C (second compound 0.316 µM, first compound 0.00316 µM): 101% | viability, T/C (second compound 0.316 µM, first compound 0.01 µM): 66.3% | viability, T/C [5]: 20.4% | viability, T/C [6]: 19.7% | viability, T/C (second compound 1 µM, first compound 0.000316 µM): 93.6% | viability, T/C (second compound 1 µM, first compound 0.001 µM): 98% | viability, T/C (second compound 1 µM, first compound 0.00316 µM): 83.7% | viability, T/C (second compound 1 µM, first compound 0.01 µM): 73.8% | viability, T/C [7]: 17.7% | viability, T/C [8]: 21.4% | viability, T/C (second compound 3.16 µM, first compound 0.000316 µM): 108% | viability, T/C (second compound 3.16 µM, first compound 0.001 µM): 93.4% | viability, T/C (second compound 3.16 µM, first compound 0.00316 µM): 99.7% | viability, T/C (second compound 3.16 µM, first compound 0.01 µM): 61.4% | viability, T/C [9]: 18.5% | viability, T/C [10]: 18.4% | viability, T/C (second compound 10 µM, first compound 0.000316 µM): 87.8% | viability, T/C (second compound 10 µM, first compound 0.001 µM): 103% | viability, T/C (second compound 10 µM, first compound 0.00316 µM): 91.1% | viability, T/C (second compound 10 µM, first compound 0.01 µM): 71.1% | viability, T/C [11]: 20.8% | viability, T/C [12]: 17.4%

COc1cccc2c1C(=O)c1c(O)c3c(c(O)c1C2=O)CC(O)(C(=O)CO)CC3OC1CC(N)C(O)C(C)O1 (centres undefined) + COC1C(OC(N)=O)C(O)C(Oc2ccc3c(O)c(NC(=O)c4ccc(O)c(CC=C(C)C)c4)c(=O)oc3c2C)OC1(C)C
IC50 (second compound 0.0316 µM): 41.1 nM | IC50 (second compound 0.1 µM): 36.4 nM | IC50 (second compound 0.316 µM): 48.2 nM | IC50 (second compound 1 µM): 37.6 nM | IC50 (second compound 3.16 µM): 34.6 nM | IC50 (second compound 10 µM): 34 nM | viability, T/C [1]: 60.4% | viability, T/C [2]: 13.3% | viability, T/C (second compound 0.0316 µM, first compound 0.316 µM): 14.5% | viability, T/C (second compound 0.0316 µM, first compound 1 µM): 0.23% | viability, T/C (second compound 0.0316 µM, first compound 3.16 µM): 0.15% | viability, T/C (second compound 0.0316 µM, first compound 10 µM): 0.13% | viability, T/C [3]: 55.3% | viability, T/C [4]: 15.8% | viability, T/C (second compound 0.1 µM, first compound 0.316 µM): 12.3% | viability, T/C (second compound 0.1 µM, first compound 1 µM): 0.13% | viability, T/C (second compound 0.1 µM, first compound 3.16 µM): 0.08% | viability, T/C (second compound 0.1 µM, first compound 10 µM): 0.1% | viability, T/C [5]: 68.8% | viability, T/C [6]: 14.4% | viability, T/C (second compound 0.316 µM, first compound 0.316 µM): 14.2% | viability, T/C (second compound 0.316 µM, first compound 1 µM): 0.13% | viability, T/C (second compound 0.316 µM, first compound 3.16 µM): 0.12% | viability, T/C (second compound 0.316 µM, first compound 10 µM): 0.12% | viability, T/C [7]: 56.3% | viability, T/C [8]: 16.2% | viability, T/C (second compound 1 µM, first compound 0.316 µM): 12.7% | viability, T/C (second compound 1 µM, first compound 1 µM): 0.13% | viability, T/C (second compound 1 µM, first compound 3.16 µM): 0.16% | viability, T/C (second compound 1 µM, first compound 10 µM): 0.48% | viability, T/C [9]: 53.5% | viability, T/C [10]: 15.6% | viability, T/C (second compound 3.16 µM, first compound 0.316 µM): 11.9% | viability, T/C (second compound 3.16 µM, first compound 1 µM): 0.14% | viability, T/C (second compound 3.16 µM, first compound 3.16 µM): 0.18% | viability, T/C (second compound 3.16 µM, first compound 10 µM): 0.3% | viability, T/C [11]: 52.8% | viability, T/C [12]: 14% | viability, T/C (second compound 10 µM, first compound 0.316 µM): 14.8% | viability, T/C (second compound 10 µM, first compound 1 µM): 0.24% | viability, T/C (second compound 10 µM, first compound 3.16 µM): 0.29% | viability, T/C (second compound 10 µM, first compound 10 µM): 0.22%

From PubChem BioAssay AID1963845 (Molecular Pharmacology Branch, DTP, NCI, 2024)
